Where two headings read alike, the source gives them in different places.
Experiments:
HaCaT = assay: Cell survival by CellTiterGlo, control cells; type: cell-based, human; details: for IC50: Homo sapiens, HaCaT, control skin cell line, CellTiterGlo, normalized to DMSO, read-out: IC50 (nM) HaCaT; for AUC (arbitrary units) HaCaT: area under the dose-response curve, control cells
MCC13 = assay: Cell survival by CellTiterGlo, VN-MCC line MCC13; type: cell-based; details: for IC50: CellTiterGlo, normalized to DMSO; for AUC (arbitrary units) MCC13: area under the dose-response curve
MCC26 = assay: Cell survival by CellTiterGlo, VN-MCC line MCC26; type: cell-based; details: for IC50: CellTiterGlo, normalized to DMSO; for AUC (arbitrary units) MCC26: area under the dose-response curve
UISO = assay: Cell survival by CellTiterGlo, VN-MCC line UISO; type: cell-based; details: for IC50: CellTiterGlo, normalized to DMSO; for AUC (arbitrary units) UISO: area under the dose-response curve
MKL-1 = assay: Cell survival by CellTiterGlo, VP-MCC line MKL-1; type: cell-based; details: for IC50: MKL-1, CellTiterGlo; for AUC (arbitrary units) MKL-1: area under the dose-response curve
Waga = assay: Cell survival by CellTiterGlo, VP-MCC line Waga; type: cell-based; details: for IC50: CellTiterGlo, normalized to DMSO; for AUC (arbitrary units) WaGa: area under the dose-response curve
[1] = tested on: control (HaCaT) and Merkel cell carcinoma cell lines; assay: Cell survival by CellTiterGlo, all seven cell lines; type: cell-based; details: for IC50: Homo sapiens, HaCaT
Description: Three methods were employed for assessment of MCC and control cell survival/viability after discorhabdin treatment, two metabolic assays and a cell permeability assay. For all three methods, cells were plated in 384-well plates at 2500 cells/well and treated with various concentrations of discorhabdins for various time periods. CellTiterGlo^TM (Promega, Madison, WI, USA) measures cellular ATP content and was used to estimate potency of discorhabdins in cell viability assays as previously described. Continuous monitoring of metabolic activity was accomplished using a cellular reducing potential luminescence assay, the RealTime-Glo^TM MT Cell Viability Assay (Promega, Madison, WI, USA) according to manufacturer’s instructions. Loss of cell plasma membrane integrity was assessed using a cell-impermeant molecule that becomes fluorescent upon binding DNA [82] in parallel with apoptosis detection per manufacturer’s instructions (RealTimeGlo^TM Annexin V Apoptosis and Necrosis Assay-Promega). Two additional assays of apoptotic cell death were also used. Caspase activation in response to treatment of MCC cells by discorhabdins or bortezomib (as a positive control) was measured using the CaspaseGlo® 3/7 Assay (Promega, Madison, WI, USA) according to the manufacturer’s instructions at multiple time points. Inhibition of apoptotic cell death was investigated using pre-treatment of cells with for 1 h with the pan-caspase inhibitor Z-VAD-FMK (Enzo Life Sciences, Farmingdale, NY, USA) followed by treatment with discorhabdins or bortezomib and estimation of cell viability as outlined above.
In order to compare responses among all of the discorhabdins and cell lines (98 combinations), dose–response curves were generated using identical discorhabdin dilution series. GraphPad Prism 8 (San Diego, CA, USA) software was utilized to graph dose–response data and to calculate IC50 values and area under the dose–response curves (AUC) along with 95% confidence interval estimates using four-parameter logistic nonlinear regression analysis. For further analysis and comparisons, AUC for each cell line/discorhabdin pair was visualized in a heatmap generated in R version 1.3.1073 (R Core Team (2013). R: A language and environment for statistical computing. R Foundation for Statistical Computing, Vienna, Austria, http://www.R-project.org/ (accessed on 12 January 2023).
Figure S39: Activity of discorhabdins against M CC cell lines.
The indicated discorh abd ins were ass essed for th eir ability to affect surviv al of control (H aCaT) and Merkel cell carcino ma cell lines (VN-MCC: MCC13, MCC26, UISO and VP -MCC: MKL-1, MKL-2, Wag a). Cells were plat ed at 2500 cells/well and compounds the next day. Cell survival was estimated by CellTiterGlo (normalized to untreated (DMSO) cells on the same plate). Structures w ere o btained from the supplier and/or the PubChem database or as described in the text. Number in bold in ( ) refers to structures in Figure 1 in the text. Curves were plotted and IC50 values and 95% confidence interval calculated by GraphPad software. […]

MKL-2 = assay: Cell survival by CellTiterGlo, VP-MCC line MKL-2; type: cell-based; details: for IC50: CellTiterGlo, normalized to DMSO; for AUC (arbitrary units) MKL-2: area under the dose-response curve
[2] = VP-MCC, normalized to DMSO, read-out: IC50 (nM) MKL-1
[3] = essentially inactive compounds, read-out: average IC50 against all the cell lines
[4] = CellTiterGlo, 10 µM highest concentration tested, read-out: IC50, all cell lines

SMILES | IC50 (HaCaT) | AUC (arbitrary units) HaCaT (HaCaT) | IC50 (MCC13) | AUC (arbitrary units) MCC13 (MCC13) | IC50 (MCC26) | AUC (arbitrary units) MCC26 (MCC26) | IC50 (UISO) | AUC (arbitrary units) UISO (UISO) | IC50 (MKL-1; [2]) | AUC (arbitrary units) MKL-1 (MKL-1; VP-MCC) | IC50 (Waga) | AUC (arbitrary units) WaGa (Waga) | IC50 [1, 3] | IC50 (MKL-2) | AUC (arbitrary units) MKL-2 (MKL-2) | IC50 [1, 4] | activity on cell viability, in words ([1]; MCC and control cell lines) | IC50 (MKL-1; printed in brackets beside the all-cell-lines bound, read-out: IC50 MKL-1)
Cn1cnc(SC2=CC(=O)C=C3S[C@H]4C[C@@]23C2=C(N4)C(=O)c3[nH]cc4c3C2=NCC4)c1C[C@H](N)C(=O)O (relative stereo) [Compound 5, (+)-(6S,8S,7′S*) discorhabdin K] | > 10000 nM | 944.5 arbitrary units | > 10000 nM | 837.7 arbitrary units | > 10000 nM | 841.3 arbitrary units | 8300 nM | 767.7 arbitrary units | 3030 nM | 335 arbitrary units | 6150 nM | 660.5 arbitrary units | > 5 µM |  |  |  |  | 
O=C(O)CNC1C2C(=O)C=C3SC4CC31C1=C(N4)C(=O)c3[nH]cc4c3C1=[N+]2CC4 (single isomer, unassigned; (-)) [Compound 13] | > 10000 nM | 909 arbitrary units | 3820 nM | 478.7 arbitrary units | > 6000 nM | 719.3 arbitrary units | 3420 nM | 436.7 arbitrary units | 682 nM | 83.43 arbitrary units | 1560 nM | 200.7 arbitrary units |  | 2910 nM | 391.1 arbitrary units |  |  | 
O=C1C=C2S[C@H]3C[C@]2(C=C1Br)C1=C(N3)C(=O)c2[nH]cc3ccnc1c23 [Compound 3, (+)-(6S,8S) discorhabdin Q] | 5450 nM | 604.2 arbitrary units | 3500 nM | 419.1 arbitrary units | 3760 nM | 432.3 arbitrary units | 3850 nM | 447.9 arbitrary units | 3440 nM | 389.4 arbitrary units | 3290 nM | 405.1 arbitrary units |  | 2040 nM | 350.1 arbitrary units |  |  | 
CSC1=CC(=O)C=C2S[C@H]3C[C@@]12C1=C(N3)C(=O)c2[nH]cc3c2C1=NCC3 [Compound 7, (+)-(6R,8S) thiomethyldiscorhabdin G*/I] | 7960 nM | 745.5 arbitrary units | 4500 nM | 495.1 arbitrary units | 7890 nM | 638.2 arbitrary units | 3270 nM | 360.8 arbitrary units | 1230 nM | 144.5 arbitrary units | 2990 nM | 321.6 arbitrary units |  |  |  |  |  | 
O=C1C=C(S(=O)(=O)O)[C@@]2(C=CNC3=C2C2=NCCc4c[nH]c(c42)C3=O)C=C1Br [Compound 9, (+)-(6S) sulphonyl-7,8-dehydrodiscorhabdin E] |  | 911.5 arbitrary units |  | 882.5 arbitrary units |  | 793.9 arbitrary units |  | 914.8 arbitrary units |  | 917.6 arbitrary units |  | 949.7 arbitrary units | > 5 µM |  |  | > 10 µM | practically inactive | 
O=C1C2=C3C4=[N+](CCc5c[nH]c1c54)[C@H]1C[C@@]34C[C@@H](N2)SC4=CC1=O [Compound 11, (+)-(2S,6R,8S) discorhabdin D] | > 6000 nM | 715.8 arbitrary units | 5000 nM | 540.6 arbitrary units | 5850 nM | 653.2 arbitrary units | 3620 nM | 423.9 arbitrary units | 497 nM | 60.49 arbitrary units | 1810 nM | 216.6 arbitrary units |  | 865 nM | 143.2 arbitrary units |  |  | 
O=C1C2=C(C3=NCCc4c[nH]c1c43)C1(C=C(Br)C(O)C(Br)=C1)CCN2 (stereo not shown) [Compound 16, 3-dihydrodiscorhabdin C] | 4130 nM | 454.5 arbitrary units | 3470 nM | 404 arbitrary units | 4700 nM | 543.3 arbitrary units | 3090 nM | 375.8 arbitrary units | 1630 nM | 195.9 arbitrary units | 3200 nM | 370.5 arbitrary units |  | 1940 nM | 277.4 arbitrary units |  |  | 
O=C1C(Br)=CC2(C=CNC3=C2C2=NCCc4c[nH]c(c42)C3=O)C=C1Br [Compound 20, 7,8-dehydrodiscorhabdin C] | > 10000 nM | 940.1 arbitrary units | 7480 nM | 694.4 arbitrary units | ~10000 nM | 815.8 arbitrary units | 5570 nM | 542.4 arbitrary units | 3260 nM | 376.3 arbitrary units | 7430 nM | 661 arbitrary units | > 5 µM |  |  |  |  | 
O=C1C=CC2(C=C1)CCNC1=C2C2=NCCc3c[nH]c(c32)C1=O [Compound 21, didebromodiscorhabdin C] |  | 952.2 arbitrary units |  | 883 arbitrary units |  | 866.1 arbitrary units |  | 851.9 arbitrary units |  | 682.4 arbitrary units |  | 973.8 arbitrary units | > 5 µM |  |  | > 10 µM |  | > 5000 nM
Cn1cc2c3c1C(=O)C1=C(C3=NCC2)[C@]2(C=CC(=O)C(Br)=C2)CCN1 [Compound 23, (+)-(6S)-N-13-methyldiscorhabdin E] | 2980 nM | 319.6 arbitrary units | 1290 nM | 155.7 arbitrary units | 2880 nM | 306.3 arbitrary units | 781 nM | 90.78 arbitrary units | 186 nM | 23.33 arbitrary units | 546 nM | 65.1 arbitrary units |  |  |  |  |  | 
O=C1C2=C(C3=NCCc4c[nH]c1c43)c1c(cc(Br)c(O)c1Br)CCN2 [Compound 24, discorhabdin C phenol] | > 10000 nM | 884.9 arbitrary units | 4640 nM | 528.6 arbitrary units | 6920 nM | 708.7 arbitrary units | 4210 nM | 493.2 arbitrary units | 2330 nM | 279.7 arbitrary units | 5460 nM | 611.2 arbitrary units |  |  |  |  |  | 
